Experiments:
ML-2 = assay: CellTiter-Glo cell viability, ML-2; assay type: cell-based
Experimental: (§1) The 50% inhibitory concentration (IC50) was determined in the cancer cell lines using CellTiter-Glo luminescent cell viability assay after incubation with different concentrations of active agents. Each cell line was treated with active Zn(II) agent, a standard chemotherapy drug as reference control, and culture medium as vehicle control. Cell Lines. All cell lines were cultured in media supplemented with 10-15% FBS, at a temperature of 37° C., 5% CO2, and 95% humidity. The reference control drug for all cell lines was cisplatin, to be used for genomic analysis. The cell lines tested, the tissue of origin are shown below in Table 1: Procedure for Determining Half Maximal Inhibition Concentration IC50 • 1. Harvested cells during the logarithmic growth period and count cell number using Count-star. • 2. Adjusted cell concentrations to 4.44×10^4 cells/mL with respective culture medium. • 3. Added 90 μL cell suspensions to two 96-well plates (plates A and B) with the final cell density of 4×10^3 cells/well. (cell concentration was adjusted according to the data base or density optimization assay.) • 4a. Next day: For the plates of TO reading: • 1) Added 10 μL culture medium to each well of plate A for TO reading. • 2) Equilibrated the plate and its content at RT for approximately 30 min. • 3) Added 50 μL CellTiter-Glo reagent to each well. • 4) Mixed content for 5 min on an orbital shaker to induce cell lysis. • 5) Allowed the plate to incubate at RT for 20 min to stabilize luminescent signal. • 6) Recorded luminescence (TO) using EnVision Multi Label Reader. • 4b. For the plates of test reading: • 1) Prepared 10× solution of Zn(II) agent test article. […] The formula for calculating surviving rate is shown below and the absolute IC50 (EC50) was calculated according to the dose-response curve generated by GraphPad Prism 5.0. • 12) The surviving rate (%)=(LumTest article−LumMedium control)/(LumNon-treated−LumMedium control)×100%.

A549 = assay: CellTiter-Glo cell viability, A549; assay type: cell-based
Experimental: (§2) The 50% inhibitory concentration (IC50) was determined in the cancer cell lines using CellTiter-Glo luminescent cell viability assay after incubation with different concentrations of active agents. Each cell line was treated with active Zn(II) agent, a standard chemotherapy drug as reference control, and culture medium as vehicle control. Cell Lines. All cell lines were cultured in media supplemented with 10-15% FBS, at a temperature of 37° C., 5% CO2, and 95% humidity. The reference control drug for all cell lines was cisplatin, to be used for genomic analysis. The cell lines tested, the tissue of origin are shown below in Table 1: Procedure for Determining Half Maximal Inhibition Concentration IC50 • 1. Harvested cells during the logarithmic growth period and count cell number using Count-star. • 2. Adjusted cell concentrations to 4.44×10^4 cells/mL with respective culture medium. • 3. Added 90 μL cell suspensions to two 96-well plates (plates A and B) with the final cell density of 4×10^3 cells/well. (cell concentration was adjusted according to the data base or density optimization assay.) • 4a. […]

DU 145 = assay: CellTiter-Glo cell viability, DU 145; assay type: cell-based
Experimental: as §1

JVM-3 = assay: CellTiter-Glo cell viability, JVM-3; assay type: cell-based
Experimental: as §1

MOLM-16 = assay: CellTiter-Glo cell viability, MOLM-16; assay type: cell-based
Experimental: as §1

PANC-1 = assay: CellTiter-Glo cell viability, PANC-1; assay type: cell-based
Experimental: as §1

50 cancer cell lines [1] = assay: Genetic instability mutation analysis of 50 cell line IC50 distribution
Description: Following the 50 cell line screening tests (OmniScreen™) described in Example 6, each cell line was catalogued (yes or no) for the presence of mutations in the following genes by consulting the OncoExpress™ database (Crown Biosciences Inc., Santa Clara, data accession date 18 May 2018˜30 May 2018). • MLH1 (part of the deficient mismatch repair—dMMR-mutations group) • MSH2 (part of the deficient mismatch repair—dMMR-mutations group) • PMS2 (part of the deficient mismatch repair—dMMR-mutations group) • PARP1 • BRCA1 (part of the BRCA1/BRCA2 mutations group) • BRCA2 (part of the BRCA1/BRCA2 mutations group) • TP53
The integrated data were then analyzed using Excel® software (Microsoft, Seattle). Briefly, the sorting algorithm of the Excel® software was used in grouping of the cell lines carrying certain mutations, and in further analysis of the IC50 distribution in each group.
The IC50 distributions among the cell line groups sharing certain genetic mutations were then analyzed for statistical significance.
Statistical analysis was performed using JMP 13 (SAS Institute Inc. Cary, N.C., USA) or Origin 9 (Origin Lab Corp., Northampton, Mass., USA). All data are represented as mean±standard error of the mean (SEM) and were tested for statistical significance using Mann-Whitney U test or analysis of variance (ANOVA). P-values of <0.05 were interpreted as statistically significant.

MOLM-13 = assay: CellTiter-Glo cell viability, MOLM-13; assay type: cell-based
Experimental: as §1

50 cancer cell lines [2] = assay: 50 cell line screen, summary of eradication; assay type: cell-based; conditions: out of 50 cell lines
Experimental: as §1, with “control.” for “control. Cell Lines. All cell lines were cultured in media supplemented with 10-15% FBS, at a temperature of 37° C., 5% CO2, and 95% humidity. The reference control drug for all cell lines was cisplatin, to be used for genomic analysis. The cell lines tested, the tissue of origin are shown below in Table 1:”, “control)×100%. Stratifying the cell line panel makeup, the 50 cell lines included 30 blood cancers (17 leukemia and 13 lymphoma cell lines) and 20 solid tumor cancers, including breast (3), cervical (1), colorectum (1), liver (4), lung (4), ovarian (2), pancreas (2), prostate (2), and uterine (1) cancer cell lines.” for “control)×100%.”

Calu-3 = assay: CellTiter-Glo cell viability, Calu-3; assay type: cell-based
Experimental: as §1

Jurkat clone E6-1 = assay: CellTiter-Glo cell viability, Jurkat clone E6-1; assay type: cell-based
Experimental: as §1

NCI-H929 = assay: CellTiter-Glo cell viability, NCI-H929; assay type: cell-based
Experimental: as §1

HeLa = assay: CellTiter-Glo cell viability, HeLa; assay type: cell-based
Experimental: as §2

Hep3B = assay: CellTiter-Glo cell viability, Hep3B; assay type: cell-based
Experimental: as §1

MES-SA/DX5 = assay: CellTiter-Glo cell viability, MES-SA/DX5; assay type: cell-based
Experimental: as §1

EOL-1 = assay: CellTiter-Glo cell viability, EOL-1; assay type: cell-based
Experimental: as §1

SK-OV-3 = assay: CellTiter-Glo cell viability, SK-OV-3; assay type: cell-based
Experimental: as §2

[3] = 96 h, top conc. 50 μg/mL Zn(II) agent, 100 μM cisplatin

## N.N.[Cl][Pt][Cl] [Cisplatin]
ML-2; 96 h, CellTiter-Glo
  Absolute IC50: 0.32 µg/mL
ML-2; [3]
  % inhibition at top conc.: 100.00%
ML-2; 96 h dose-response fit
  HillSlope: −3.28
A549; [3]
  % inhibition at top conc.: 97.57%
A549; 96 h dose-response fit
  HillSlope: −0.93
DU 145; 96 h, CellTiter-Glo
  Absolute IC50: 0.20 µg/mL
DU 145; [3]
  % inhibition at top conc.: 99.24%
DU 145; 96 h dose-response fit
  HillSlope: −2.37
JVM-3; 96 h, CellTiter-Glo
  Absolute IC50: 0.14 µg/mL
JVM-3; [3]
  % inhibition at top conc.: 99.99%
JVM-3; 96 h dose-response fit
  HillSlope: −1.70
MOLM-16; 96 h, CellTiter-Glo
  Absolute IC50: 0.15 µg/mL
MOLM-16; [3]
  % inhibition at top conc.: 99.96%
MOLM-16; 96 h dose-response fit
  HillSlope: −1.65
PANC-1; 96 h, CellTiter-Glo
  Absolute IC50: 1.08 µg/mL
PANC-1; [3]
  % inhibition at top conc.: 96.35%
PANC-1; 96 h dose-response fit
  HillSlope: −0.62
50 cancer cell lines [1]
  effect of CREBBPmt-KRASmt-BRCA1WT combination on sensitivity: strong resistance
MOLM-13; 96 h, CellTiter-Glo
  Absolute IC50: 0.16 µg/mL
MOLM-13; [3]
  % inhibition at top conc.: 99.98%
MOLM-13; 96 h dose-response fit
  HillSlope: −2.08
50 cancer cell lines [2]
  number of cell lines with more than 97% eradication: 45
  number of cell lines with more than 99% eradication: 39
  number of cell lines with poor response of less than 90% eradication: 2
Calu-3; 96 h, CellTiter-Glo
  Absolute IC50: 0.30 µg/mL
Calu-3; [3]
  % inhibition at top conc.: 82.29%
Calu-3; 96 h dose-response fit
  HillSlope: −1.15
Jurkat clone E6-1; 96 h, CellTiter-Glo
  Absolute IC50: 0.17 µg/mL
Jurkat clone E6-1; [3]
  % inhibition at top conc.: 99.99%
Jurkat clone E6-1; 96 h dose-response fit
  HillSlope: −2.37
NCI-H929; 96 h, CellTiter-Glo
  Absolute IC50: 0.64 µg/mL
NCI-H929; [3]
  % inhibition at top conc.: 99.98%
NCI-H929; 96 h dose-response fit
  HillSlope: −1.83
HeLa; [3]
  % inhibition at top conc.: 99.91%
HeLa; 96 h dose-response fit
  HillSlope: −1.70
Hep3B; 96 h, CellTiter-Glo
  Absolute IC50: 0.78 µg/mL
Hep3B; [3]
  % inhibition at top conc.: 99.58%
Hep3B; 96 h dose-response fit
  HillSlope: −1.50
MES-SA/DX5; 96 h, CellTiter-Glo
  Absolute IC50: 0.56 µg/mL
MES-SA/DX5; [3]
  % inhibition at top conc.: 99.97%
MES-SA/DX5; 96 h dose-response fit
  HillSlope: −1.75
EOL-1; 96 h, CellTiter-Glo
  Absolute IC50: 0.16 µg/mL
EOL-1; [3]
  % inhibition at top conc.: 99.99%
EOL-1; 96 h dose-response fit
  HillSlope: −1.87
SK-OV-3; [3]
  % inhibition at top conc.: 98.22%
SK-OV-3; 96 h dose-response fit
  HillSlope: −1.68

From patent US20210128609A1, “ONCOLOGY TREATMENTS USING ZINC AGENTS” (XYLONIX IP HOLDINGS PTE. LTD., priority 2018, published 2021)
